One data set relates to Staphylococcus aureus. Briefly: Antibacterial activity against Staphylococcus aureus ATCC 29213 by broth microdilution method. In kind it is functional.
Data set [1] is described as follows: Hemolytic activity in human RBC relative to control. As to conditions: red blood cells (erythrocytes), read-out: Activity. In kind it is ADME, cell-based, Erythrocyte.
Data set [2] in a line: Plasma protein binding in human at […] incubated for 2 hrs by UPLC analysis. In kind it is ADME, cell-free. As to conditions: read-out: PPB (converted).
The subject of a further data set is HepG2. Briefly: Cytotoxicity against human HepG2 cells assessed as reduction in cell viability by XTT assay. The class given is cell-based.

Each structure is given as a SMILES string. Converted amounts (≈) assume the structure as drawn.

Consider `Oc1ccc(-c2nc(-c3ccc(OC4CNC4)cc3)no2)cc1`, for which the MIC (usually the least concentration at which growth counts as inhibited) with Staphylococcus aureus came to 64 µg/mL (≈ 207 µM). Compound `N#Cc1ccc(Oc2ccc(-c3noc(-c4n[nH]cc4Cl)n3)cc2)cc1` had an MIC in the data set on Staphylococcus aureus of 128 µg/mL (≈ 352 µM). Take `CN1[C@@H]2CC[C@@H]1CC(Oc1ccc(-c3noc(-c4ccc(O)cc4)n3)cc1)C2` (some centres undefined): the minimum inhibitory concentration (MIC) in the data set on Staphylococcus aureus was determined as 32 µg/mL (≈ 84.8 µM). `Oc1ccc(-c2nc(-c3ccc(OC4CCCNC4)cc3)no2)cc1` (centres undefined): the minimum inhibitory concentration (MIC) in the data set with Staphylococcus aureus was determined as 64 µg/mL (≈ 190 µM). Regarding `Oc1ccc(-c2nc(-c3ccc(Oc4ccccc4CBr)cc3)no2)cc1`, the MIC against Staphylococcus aureus was 8 µg/mL (≈ 18.9 µM). For the compound `Clc1c[nH]nc1-c1nc(-c2ccc(Oc3ccc(I)cc3)cc2)no1`, in data set [1], the hemolysis came to 3.1%. Further, in the data set with Staphylococcus aureus, the MIC is 1 µg/mL (≈ 2.15 µM). In addition, in data set [2], the fraction unbound at 2 h was 0.095. For the same compound, in the data set with HepG2, the IC50 – broadly, the concentration needed to halve the response being measured – came to 30.7 µg/mL (≈ 66.1 µM). Take `Oc1ccc(-c2nc(-c3ccc(Oc4ccccc4I)cc3)no2)cc1`: the MIC with Staphylococcus aureus was 2 µg/mL (≈ 4.38 µM).

Regarding `Oc1ccc(-c2nc(-c3ccc(Oc4ccc(OC(F)(F)F)cc4)cc3)no2)cc1`, the hemolysis in data set [1] turned out to be 2.1%. In the data set with Staphylococcus aureus, this compound came in with a minimal inhibitory concentration (MIC) of 2 µg/mL (≈ 4.83 µM). The fraction unbound at 2 h in data set [2] was 0.002. The IC50 with HepG2 is 16.9 µg/mL (≈ 40.8 µM).

Regarding `[N-]=[N+]=Nc1cccc(Oc2ccc(-c3noc(-c4ccc(O)cc4)n3)cc2)c1`, it took 2 µg/mL (≈ 5.39 µM) to inhibit growth with Staphylococcus aureus (MIC). Consider `Oc1ccc(-c2nc(-c3ccc(Oc4cccc(I)c4)cc3)no2)cc1`, for which it took 4 µg/mL (≈ 8.77 µM) to inhibit growth against Staphylococcus aureus (MIC). With `CN1CCCC(Oc2ccc(-c3noc(-c4n[nH]cc4Cl)n3)cc2)C1` (centres undefined), the MIC with Staphylococcus aureus was 128 µg/mL (≈ 356 µM). As to `Nc1ccccc1Oc1ccc(-c2noc(-c3ccc(O)cc3)n2)cc1`, the MIC in the data set with Staphylococcus aureus is not below 128 µg/mL.

`Oc1ccc(-c2nc(-c3ccc(OC(F)(F)F)cc3)no2)cc1`: in data set [1], the hemolysis turned out to be 16%. The same compound returned an MIC with Staphylococcus aureus of 1 µg/mL (≈ 3.1 µM). Further, in the data set on HepG2, the IC50 was 84.9 µg/mL (≈ 263 µM).

In the case of `Oc1ccc(-c2nc(-c3ccc(OC4CCOC4)cc3)no2)cc1` (centres undefined), the MIC against Staphylococcus aureus was not below 128 µg/mL. Regarding `Cl.Oc1ccc(-c2nc(-c3ccc(OC4CCNC4)cc3)no2)cc1` (centres undefined), the MIC in the data set on Staphylococcus aureus stood at 16 µg/mL.

`O=C(O)c1ccc(Oc2ccc(-c3noc(-c4ccc(O)cc4)n3)cc2)cc1` gave an MIC against Staphylococcus aureus of 64 µg/mL (≈ 171 µM). As to `CN(C)C(=O)CCOc1ccc(-c2noc(-c3ccc(O)cc3)n2)cc1`, the MIC in the data set on Staphylococcus aureus is not below 128 µg/mL. As to `Cc1nc2cc(Oc3ccc(-c4noc(-c5n[nH]cc5Cl)n4)cc3)ccc2s1`, the lowest concentration to inhibit growth in the data set on Staphylococcus aureus (MIC) was 16 µg/mL (≈ 39 µM). `CC(C)(C)OC(=O)NCCCOc1ccc(-c2noc(-c3ccc(O)cc3)n2)cc1`: the minimal inhibitory concentration (MIC) with Staphylococcus aureus was not below 128 µg/mL. Same read-out and setting: the value for `CC(C)(C)OC(=O)N1CCC(Oc2ccc(-c3noc(-c4n[nH]cc4Cl)n3)cc2)CC1` was not below 128 µg/mL. In the data set with Staphylococcus aureus, `CN1[C@@H]2CC[C@@H]1CC(Oc1ccc(-c3noc(-c4n[nH]cc4Cl)n3)cc1)C2` (some centres undefined) registered a minimum inhibitory concentration (MIC) of 64 µg/mL (≈ 166 µM). Regarding `O=C(O)c1ccccc1Oc1ccc(-c2noc(-c3ccc(O)cc3)n2)cc1`, the MIC against Staphylococcus aureus is more than 128 µg/mL. As for `[N-]=[N+]=Nc1ccccc1Oc1ccc(-c2noc(-c3ccc(O)cc3)n2)cc1`, the MIC in the data set with Staphylococcus aureus turned out to be 2 µg/mL (≈ 5.39 µM). Turning to `CS(=O)(=O)Oc1ccc(-c2noc(-c3ccc(O)cc3)n2)cc1`, the MIC with Staphylococcus aureus was not below 128 µg/mL. With `Oc1ccc(-c2nc(-c3ccc(Oc4ccc(CBr)cc4)cc3)no2)cc1`, the minimal inhibitory concentration (MIC) against Staphylococcus aureus is not below 128 µg/mL.

For the compound `Oc1ccc(-c2nc(-c3ccc4oc5ccccc5c4c3)no2)cc1`, in the data set on Staphylococcus aureus, the MIC is not below 128 µg/mL.

The compound `Oc1ccc(-c2nc(-c3ccc4c(c3)Oc3ccccc3O4)no2)cc1` yielded an MIC in the data set with Staphylococcus aureus not below 128 µg/mL. Still for that read-out and setting: to `[N-]=[N+]=Nc1ccc(Oc2ccc(-c3noc(-c4ccc(O)cc4)n3)cc2)cc1` belongs 2 µg/mL (≈ 5.39 µM); to `COc1ccc(-c2noc(-c3n[nH]cc3Cl)n2)cc1`, not below 128 µg/mL; to `N#Cc1ccc(Oc2ccc(-c3noc(-c4ccc(O)cc4)n3)cc2)cc1`, not below 128 µg/mL. In the data set with Staphylococcus aureus, `COc1ccc(-c2noc(-c3ccc(O)cc3)n2)cc1` came in with a minimum inhibitory concentration (MIC) of 32 µg/mL (≈ 119 µM). `FC(F)(F)Oc1ccc2oc3ccc(-c4noc(-c5n[nH]cc5Cl)n4)cc3c2c1`: the MIC against Staphylococcus aureus is more than 128 µg/mL. In the data set on Staphylococcus aureus, `Oc1ccc(-c2nc(-c3ccc4oc5ccc(C(F)(F)F)cc5c4c3)no2)cc1` yielded an MIC not below 128 µg/mL. The compound `CS(=O)(=O)c1ccc(Oc2ccc(-c3noc(-c4n[nH]cc4Cl)n3)cc2)cc1` had an MIC in the data set with Staphylococcus aureus of 128 µg/mL (≈ 307 µM). On the same count and under the same terms, to `CC(C)(C)OC(=O)N1CCC(Oc2ccc(-c3noc(-c4n[nH]cc4Cl)n3)cc2)C1` (centres undefined) belongs not below 128 µg/mL; to `O=[N+]([O-])c1ccccc1Oc1ccc(-c2noc(-c3ccc(O)cc3)n2)cc1`, 4 µg/mL (≈ 10.7 µM).

The values are drawn from ChEMBL document CHEMBL4342484, “Structure-Activity Relationship for the Oxadiazole Class of Antibacterials” (ACS Med Chem Lett, 2020).
